These results are taken from patent US10028992B2, “Methods of treating muscular dystrophy” (BOARD OF REGENTS OF THE NEVADA SYSTEM OF HIGHER EDUCATION …, priority 2012, dated 2018).

In the test the test system is α7 integrin promoter. Briefly: muscle cell-based assay: α7βgal+/− myoblasts/myotubes, LacZ reporter, β-galactosidase cleavage of FDG. Also on record: species or system mouse. The following applies: Myotubes; for Results in a α7+/− β-galactosidase assay, Myotubes, 0.5 uM: compound at 0.5 uM; for Results in a α7+/− β-galactosidase assay, Myotubes, 1 uM: compound at 1 uM; for Results in a α7+/− β-galactosidase assay, Myotubes, 5 uM: compound at 5 uM; for Results in a α7+/− β-galactosidase assay, Myotubes, 10 uM: compound at 10 uM; for Results in a α7+/− β-galactosidase assay, Myotubes, 20 uM: compound at 20 uM; for Results in a α7+/− β-galactosidase assay, Myotubes, 40 uM: compound at 40 uM. In outline: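 Fluorescein generated from FDG by β-galactosidase reports α7 integrin promoter activity in differentiated myoblasts from α7+/− LacZ knock-in pups. Screening hits then went to dose-response, western blotting and a myostatin counterscreen.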

As to `NS(=O)(=O)c1ccc(NC(=O)CN2CCc3ccccc32)cc1` [drawing 446], the “Results in a α7+/− β-galactosidase assay, Myotubes, 0.5 uM” value (“Results … 0.5 uM” for short) is listed as −0.03601; the “Results in a α7+/− β-galactosidase assay, Myotubes, 1 uM” value (from here on “Results … 1 uM”) was −0.07498; the “Results in a α7+/− β-galactosidase assay, Myotubes, 5 uM” value (“Results … Myotubes, 5 uM” below) is reported as 0.1476; the “Results in a α7+/− β-galactosidase assay, Myotubes, 10 uM” value (shortened to “Results … 10 uM”) is given as −0.1666. In addition, the “Results in a α7+/− β-galactosidase assay, Myotubes, 20 uM” value (from here on “Results … 20 uM”) was −0.05843 and the “Results in a α7+/− β-galactosidase assay, Myotubes, 40 uM” value (“Results … 40 uM” for short) is −0.06764.

Consider `CC(=O)C1=C(C)Nc2ncnn2C1c1ccc(C)cc1` (stereo not drawn) [drawing 447], for which the “Results … 0.5 uM” value was found to be 0.06012; the “Results … 1 uM” value is −0.01856; the “Results … Myotubes, 5 uM” value worked out at 0.152; the “Results … 10 uM” value is recorded as −0.155. Besides, the “Results … 20 uM” value is reported as −0.1763 and the “Results … 40 uM” value is reported as −0.08699.

For `COc1ccc(OC)c(S(=O)(=O)Nc2c(NC3CCCCC3)c3ccccc3oc2=O)c1` [drawing 448], the “Results … 0.5 uM” value worked out at 0.01269; the “Results … 1 uM” value was −0.0336; the “Results … Myotubes, 5 uM” value came out at 0.04486; the “Results … 10 uM” value is −0.2638. The “Results … 20 uM” value is recorded as −0.05892 and the “Results … 40 uM” value is −0.2063.

Consider `CC(=O)Nc1ccc(NC(=O)C/C(C)=N/NC(=O)COc2cc(C)c(Br)cc2Br)cc1` [drawing 449], for which the “Results … 0.5 uM” value was −0.08286; the “Results … 1 uM” value is listed as −0.1235; the “Results … Myotubes, 5 uM” value is −0.2507; the “Results … 10 uM” value is recorded as −0.3124. In addition, the “Results … 20 uM” value was −0.1128 and the “Results … 40 uM” value is listed as −0.2976.

As for `Cc1cccc(Cn2cnc3c(nnn3Cc3ccc(Cl)cc3)c2=O)c1` [drawing 450], the “Results … 0.5 uM” value is listed as 0.04908; the “Results … 1 uM” value is −0.01328; the “Results … Myotubes, 5 uM” value is −0.09823; the “Results … 10 uM” value was −0.3107. Also, the “Results … 20 uM” value is given as −0.1707 and the “Results … 40 uM” value is given as −0.1775.

On to `CCOc1ccc(Br)cc1S(=O)(=O)Nc1ccc(C(=O)Nc2ccccc2OC)cc1` [drawing 451], for which the “Results … 0.5 uM” value is reported as 0.1091; the “Results … 1 uM” value was determined as 0.02499; the “Results … Myotubes, 5 uM” value was −0.02123; the “Results … 10 uM” value is −0.1229. Also, the “Results … 20 uM” value was −0.2419 and the “Results … 40 uM” value is recorded as −0.2407.

In the case of `O=C(NCc1ccccc1)c1csc(-c2cccnc2)n1` [drawing 452], the “Results … 0.5 uM” value is recorded as −0.05273; the “Results … 1 uM” value is recorded as −0.1614; the “Results … Myotubes, 5 uM” value was determined as 0.1395; the “Results … 10 uM” value was determined as 0.1693. Further, the “Results … 20 uM” value amounted to 0.05975 and the “Results … 40 uM” value is −0.1073.

`O=C1C2CCCN2C(=O)N1CCCN1CCN(c2cccc(Br)c2)CC1` (stereo not drawn) [drawing 453]: the “Results … 0.5 uM” value is listed as −0.101; the “Results … 1 uM” value is given as −0.07437; the “Results … Myotubes, 5 uM” value is −0.1132; the “Results … 10 uM” value is on record as 0.07677. For the same molecule, the “Results … 20 uM” value is on record as −0.1243 and the “Results … 40 uM” value is 0.1476.

As for `C=CCc1c(C)nc(-c2ccccc2)nc1N/N=C(\C)c1ccc(N)cc1` [drawing 454], the “Results … 0.5 uM” value is −0.04135; the “Results … 1 uM” value was −0.05977; the “Results … Myotubes, 5 uM” value is recorded as −0.2067; the “Results … 10 uM” value is 0.05284. The “Results … 20 uM” value is recorded as −0.1823 and the “Results … 40 uM” value came to 0.1021.

Regarding `CC(C)(C)c1csc(NC(=O)c2cccnc2)n1` [drawing 455], the “Results … 0.5 uM” value is on record as −0.1018; the “Results … 1 uM” value is on record as −0.04907; the “Results … Myotubes, 5 uM” value is 0.01472; the “Results … 10 uM” value was found to be 0.1276. The “Results … 20 uM” value was −0.2798 and the “Results … 40 uM” value is −0.144.

As to `Cc1ccccc1/C=C1\C(=O)Nc2ccc(F)cc21` [drawing 456], the “Results … 0.5 uM” value came out at 0.008769; the “Results … 1 uM” value was −0.01895; the “Results … Myotubes, 5 uM” value is given as −0.02208; the “Results … 10 uM” value was 0.1345. The “Results … 20 uM” value is −0.1202 and the “Results … 40 uM” value came to 0.009496.

With `Cc1ccc2c(c1)/C(=C/c1ccccc1)C(=O)N2` [drawing 457], the “Results … 0.5 uM” value is given as −0.1541; the “Results … 1 uM” value is reported as −0.09775; the “Results … Myotubes, 5 uM” value was −0.09703; the “Results … 10 uM” value came out at 0.151. The “Results … 20 uM” value was −0.411 and the “Results … 40 uM” value is −0.4149.

Turning to `COC(=O)c1ccccc1CC(=O)CSc1nc(O)c(-c2ccccc2)c(O)n1` [drawing 458], the “Results … 0.5 uM” value is −0.05289; the “Results … 1 uM” value is recorded as −0.1068; the “Results … Myotubes, 5 uM” value is reported as −0.1993; the “Results … 10 uM” value was determined as 0.1104. In addition, the “Results … 20 uM” value is on record as −0.1578 and the “Results … 40 uM” value was determined as 0.03611.

Turning to `Cc1ccc2c(c1)/C(=C/c1ccccc1F)C(=O)N2` [drawing 459], the “Results … 0.5 uM” value is given as −0.02905; the “Results … 1 uM” value was −0.08264; the “Results … Myotubes, 5 uM” value is recorded as −0.2089; the “Results … 10 uM” value came out at 0.1057. For the same molecule, the “Results … 20 uM” value is given as −0.3626 and the “Results … 40 uM” value is on record as −0.3722.

With `CC(=O)Nc1ccc(-n2c(C)nc(=O)c(-c3ccccc3)c2C)cc1` [drawing 460], the “Results … 0.5 uM” value is −0.1626; the “Results … 1 uM” value is given as −0.1764; the “Results … Myotubes, 5 uM” value is −0.2443; the “Results … 10 uM” value is reported as −0.1679. The “Results … 20 uM” value is −0.3617 and the “Results … 40 uM” value was −0.505.

`CCc1nc2ccccc2c(C(=O)NCc2ccccc2)c1C` [drawing 461]: the “Results … 0.5 uM” value is −0.0989; the “Results … 1 uM” value is recorded as −0.1627; the “Results … Myotubes, 5 uM” value was determined as 0.438; the “Results … 10 uM” value is listed as 0.1173. Also, the “Results … 20 uM” value is reported as −0.1092 and the “Results … 40 uM” value turned out to be 0.1436.

For the molecule `CCOC(=O)c1cc(-c2cccs2)nc2c1c(C)nn2-c1ccccn1` [drawing 462], the “Results … 0.5 uM” value is −0.07388; the “Results … 1 uM” value is listed as −0.1286; the “Results … Myotubes, 5 uM” value was −0.1329; the “Results … 10 uM” value is reported as −0.1516. Moreover, the “Results … 20 uM” value is listed as −0.2792 and the “Results … 40 uM” value was −0.2792.

Take `CN1CCN(c2ccccc2/C=C2\C(=O)Nc3ccccc32)CC1` [drawing 463]: the “Results … 0.5 uM” value is reported as 0.01535; the “Results … 1 uM” value was determined as 0.02095; the “Results … Myotubes, 5 uM” value is given as −0.163; the “Results … 10 uM” value is −0.162. Besides, the “Results … 20 uM” value is given as −0.1247 and the “Results … 40 uM” value is −0.07473.

As for `COC(=O)c1cc(S(=O)(=O)NCC2CCN(Cc3ccc(Cl)cc3)CC2)cn1C` [drawing 464], the “Results … 0.5 uM” value is −0.00414; the “Results … 1 uM” value is recorded as −0.05118; the “Results … Myotubes, 5 uM” value is −0.09401; the “Results … 10 uM” value is −0.08097. In addition, the “Results … 20 uM” value was −0.09607 and the “Results … 40 uM” value is given as −0.07382.

For `COc1ccc(C(=O)Cn2nnc(-c3ccccc3NC(=O)c3ccco3)n2)cc1` [drawing 465], the “Results … 0.5 uM” value worked out at 0.1086; the “Results … 1 uM” value is reported as 0.1215; the “Results … Myotubes, 5 uM” value is on record as −0.1502; the “Results … 10 uM” value is on record as −0.3147. For the same molecule, the “Results … 20 uM” value is −0.5196 and the “Results … 40 uM” value was −0.8196.
